Laboratory results published in patent publication US9902752B2, “5-fluorouracil derivatives” (B. Braun Melsungen AG, priority 2012, dated 2018).
Like-named read-outs stand apart in the source and are kept apart here. One block for each compound: values may come before it.

How the values were obtained:
[1] = Lipophilicity as chromatographic mobility, RP-18 HPLC retention time; assay type: physicochemical; settings: MeCN/0.1 M Et3NH+OAc− (35:65, v/v, pH 7.0)
Experimental: RP-18 HPLC was carried out on a 250×4 mm RP-18 column (Merck, Germany) on a Merck-Hitachi HPLC apparatus with one pump (Model 655A-12) connected with a proportioning valve, a variable wavelength monitor (Model 655 A), a controller (Model L-5000), and an integrator (Model D-2000). Solvent: MeCN/0.1 M Et3NH^+OAc^− (35:65, v/v, pH 7.0).
The lipophilicity of various 5-fluorouridine derivatives has been studied since the lipophilicity has inter alia an influence on the incorporation into oligo(2′-deoxynucleotides). The lipophilicity of the novel hydrophobic nucleoside derivatives has been studied in different by two ways: (i) log P values of the compounds were calculated (Table 4) and compared with those of the unmodified nucleoside 1a, (ii) the chromatographic mobilities of the compounds were measured in terms of retention times (tR in min) by RP-18 HPLC.

[2] = cited from earlier work

SMILES: CCCCCCCCCC1(CCCCCCCCC)O[C@@H]2[C@H](O1)[C@@H](CO)O[C@H]2n1cc(F)c(=O)[nH]c1=O [Compound 19c, 5-Fluoro-1-((3aR,4R,6R,6aR)-6-(hydroxymethyl)-2,2-dinonyltetrahydrofuro[3,4-d][1,3]dioxol-4-yl)pyrimidine-2,4(1H,3H)-dione]
RP-18 HPLC tR [1]: >600 min

SMILES: O=c1[nH]cc(F)c(=O)[nH]1 [fluorouracil, 5-fluorouracil]
half life ([2]; with uracil (UFT, DPD inhibition)): 10 to 14 h | half life ([2]; without uracil): 0.167 to 0.5 h

SMILES: CC(C)=CCC/C(C)=C/CC/C(C)=C/Cn1c(=O)c(F)cn([C@@H]2O[C@H](CO)[C@@H](O)[C@H]2O)c1=O [Compound 23, 1-((2R,3R,4S,5R)-3,4-dihydroxy-5-(hydroxymethyl)tetrahydrofuran-2-yl)-5-fluoro-3-((2E,6E)-3,7,11-trimethyldodeca-2,6,10-trien-1-yl)pyrimidine-2,4(1H,3H)-dione]
RP-18 HPLC tR [1]: 27 min

Second part, the compound after the results:

RP-18 HPLC tR [1]: 87 min
SMILES: CCCC1(CCC)OC2C(O1)[C@@H](CO)O[C@H]2n1cc(F)c(=O)n(C/C=C(\C)CC/C=C(\C)CCC=C(C)C)c1=O (stereo partly drawn) [Compound 25, 5-Fluoro-1-((3aR,4R,6R,6aR)-6-(hydroxymethyl)-2,2-dipropyitetrahydrofuro-[3,4-d][1,3]dioxol-4-yl)-3-((2E,6E)-3,7,11-trimethyldodeca-2,6,10-trien-1-yl)pyrimidine-2,4(1H,3H)-dione]

RP-18 HPLC tR [1]: 24 min
SMILES: CC(C)=CCC/C(C)=C/CC/C(C)=C/Cn1c(=O)c(F)cn([C@@H]2O[C@H](CO)[C@H]3OC(C)(C)O[C@H]32)c1=O [Compound 24, 5-Fluoro-1-((3aR,4R,6R,6aR)-6-(hydroxymethyl)-2,2-dimethyltetrahydrofuro-[3,4-d][1,3]dioxol-4-yl)-3-((2E,6E)-3,7,11-trimethyldodeca-2,6,10-trien-1-yl)pyrimidine-2,4(1H,3H)-dione]
